{
  "source": "paper PMC4844192",
  "about": "(ACS chemical biology, 2015)",
  "key": {"[1]": {"biological_target": "CtBP2 (Homo sapiens, UniProt P56545)", "test": "Isothermal titration calorimetry", "type": "binding"}, "[2]": {"test_system": "CtBP", "type": "biochemical, human"}, "[3]": {"test_system": "HCT116 colon cancer cells", "conditions": "through displacement of CtBP2 from the Bik promoter; cited from earlier work"}, "[4]": {"test_system": "mouse xenograft models", "conditions": "compared with untreated mice; cited from earlier work"}, "[5]": {"test_system": "CtBP", "conditions": "cited from earlier work"}, "[6]": {"biological_target": "CtBP1 (Homo sapiens, UniProt Q13363)", "test": "Isothermal titration calorimetry", "conditions": "CtBP1, pH 7.5, displacement ITC with HIPP"}, "[7]": {"test_system": "CtBP", "conditions": "cited from earlier work", "remark": "listed apart in the source"}, "[8]": {"conditions": "CtBP2, pH 8.5, competitive displacement ITC with HIPP"}},
  "note": "pIC50: −log10 of the molar value.",
  "data": [
    {"smiles": "CSCCC(=O)C(=O)O", "note": "[MTOB, 4-methylthio 2-oxobutyric acid]", "values": [
      {"measurement": "binding dissociation constant, direct ITC measurement", "setting": "[1]; CtBP2, direct titration, low signal", "result": "low millimolar range"},
      {"measurement": "ΔG", "setting": "[1]; [8]", "result": -3.4, "unit": "kcal"},
      {"measurement": "ΔH", "setting": "[1]; [8]", "result": "-3.4 ± 0.34", "unit": "kcal/mol"},
      {"measurement": "−TΔS", "setting": "[1]; [8]", "result": 0.0, "unit": "kcal/mol"},
      {"measurement": "substrate inhibition", "setting": "[2]; MTOB in excess", "result": "exhibits substrate inhibition when in excess"},
      {"measurement": "apoptosis", "setting": "[3]", "result": "induced apoptosis"},
      {"measurement": "survival", "setting": "[4]", "result": "prolonged survival"},
      {"measurement": "tumor burden", "setting": "[4]", "result": "decreased tumor burden"},
      {"measurement": "concentrations required for (substrate) inhibition of CtBP", "setting": "[5]", "result": "> 300", "unit": "µM"},
      {"measurement": "ΔG", "setting": "[6]", "result": -3.9, "unit": "kcal"},
      {"measurement": "ΔH", "setting": "[6]", "result": "-11.3 ± 0.83", "unit": "kcal/mol"},
      {"measurement": "−TΔS", "setting": "[6]", "result": 7.4, "unit": "kcal/mol"}
    ]},
    {"smiles": "O=C(O)C(=O)Cc1ccccc1", "note": "[PPy, phenylpyruvate]", "values": [
      {"measurement": "binding relative to MTOB (ITC injection peaks)", "setting": "[1]; CtBP2, low PPy concentrations, CtBP2 precipitation prevented quantitation", "result": "tighter than MTOB"},
      {"measurement": "pIC50", "setting": "[2]; CtBP dehydrogenase function, after 15 minutes", "result": 3.87}
    ]},
    {"smiles": "NC(=O)C1=CN([C@@H]2O[C@H](COP(=O)(O)OP(=O)(O)OC[C@H]3O[C@@H](n4cnc5c(N)ncnc54)[C@H](O)[C@@H]3O)[C@@H](O)[C@H]2O)C=CC1", "note": "[NADH]", "values": [
      {"measurement": "affinity of CtBP for NADH relative to NAD+", "setting": "[7]", "result": 100, "unit": "fold"}
    ]}
  ]
}
